Data reported in patent publication US10226493B2, “Coriolus versicolor extracts, methods of preparation and uses thereof” (priority 2010, dated 2019).

System: herpes simplex virus (HSV)
Test: HSV infection in mice, disease severity by hind-limb paralysis score
Assay type: in vivo
Conditions: male BALB/c mice, ip once a day; MPUB-EtOH 250 mg/kg, acyclovir 10 mg/kg; versus DMSO-treated controls; FIG. 10
Experimental: To investigate the antiviral effects of C. versicolor extract in vivo, 3-week-old male BALB/c mice (15 mice per group) were administrated intraperitoneally (ip) with dimethyl sulfoxide (DMSO) (solvent for MPUB-EtOH) or MPUB-EtOH (250 mg/kg) once a day at 24 hr intervals for […].
Briefly, the mice were infected with inoculation of HSV ip at 1×10^5 TCID50/ml at day 0. DMSO, MPUB-EtOH or acyclovir (10 mg/kg) were administrated ip once a day at 24 hr intervals for 5 days starting 1 hr after infection. The mice were inspected daily and the disease severity was measured by hind-limb(s) paralysis based on the following scoring system: 0, no paralysis; 1, obvious difficulty in movement of hind limbs; 2, one hind limb incomplete paralysis; 3, one hind limb complete paralysis; 4, both hind limbs incomplete paralysis; 5, both hind limbs complete paralysis.

Nc1nc2c(ncn2COCCO)c(=O)[nH]1 [acyclovir]
severity of HSV infection (hind-limb paralysis score 0-5): comparable
